# Measurements reported in the SangsterLogP compilation.
row,SMILES,logP
1,Oc1ccc(O)c2ccccc12,2.24
2,CCc1cccc(CC)c1,4.16
3,OCc1c2ccccc2cc2ccccc12,3.04
4,CCc1ccc(CC)cc1,4.22
5,O=Cc1ccc(Cl)cc1,2.34
6,CCc1ccccc1CC,4.1
7,OCc1ccc2ccccc2c1,2.42
8,CCCCCCCc1ccccc1,5.37
9,Cc1cccc2[nH]ccc12,2.54
10,CCn1c2ccccc2c2ccccc21,3.97
11,CCCCCCCCCCCCc1ccc(O)cc1O,5.32
12,Cc1[nH]c2ccccc2c1C,2.51

# Further lines, results first:
row,logP,SMILES
1,4.51,C/C=C/CCCCC
2,4.56,CCC1CCCCC1
3,4.17,CC1CCCCC1
4,3.07,CCCCCCc1ccc(O)cc1O
5,2.36,CCc1ccccc1O
6,2.87,Oc1cccc2c1CCCC2
7,5.04,CC(C)(C)C1CCCCC1
